Structures are written as SMILES. pIC50: −log10 of the molar value. Some results are limits rather than exact numbers.

The values that follow come from patent publication US20040067531A1, “Methods of modulating protein tyrosine kinase function with substituted indolinone compounds” (SUGEN, INC., priority 1997, published 2004).

The target of one assay is T1, FLK-1 receptor (Mus musculus, UniProt P35918).
T1 construct: expressed in transfected cells; host or cells: NIH3T3 C7#3
In words: ELISA assay measuring the kinase activity of the FLK-1 receptor in cells engineered to express FLK-1. The conditions noted are these: NIH3T3 C7#3 FLK-1 expressing cells, VEGF stimulation, phosphotyrosine ELISA. The assay is classed as cell-based. On the procedure: An ELISA assay was conducted to measure the kinase activity of the FLK-1 receptor and more specifically, the inhibition or activation of TK activity on the FLK-1 receptor. Specifically, the following assay was conducted to measure kinase activity of the FLK-1 receptor in cells genetically engineered to express FLK-1.
(11) NIH3T3 C7#3 Cells (FLK-1 expressing cells);
The following protocol was used for conducting the assay:
1. Coat Corning 96-well elisa plates with 1.0 μg per well Cappel Anti-rabbit IgG antibody in 0.1 M Na2CO3 pH 9.6. Bring final volume to 150 μL per well. Coat plates overnight at 4° C. Plates can be kept up to two weeks when stored at 4° C.
2. Grow cells in Growth media (DMEM, supplemental with 2.0 mM L-Glutamine, 10% FBS) in suitable culture dishes until confluent at 37° C., 5% CO2.
3. Harvest cells by trypsinization and seed in Corning 25850 polystyrene 96-well roundbottom cell plates, 25.000 cells/well in 200 μL of growth media.
4. Grow cells at least one day at 37° C., 5% CO2.
5. Wash cells-with D-PBS 1×.
6. Add 200 μL/well of starvation media (DMEM, 2.0 mM 1-Glutamine, 0.1% FBS). Incubate overnight at 37° C., 5% CO2.
7. Dilute Compounds 1:20 in polypropylene 96 well plates using starvation media. Dilute dimethylsulfoxide 1:20 for use in control wells.
8. Remove starvation media from 96 well cell culture plates and add 162 μL of fresh starvation media to each well.
9. Add 18 μL of 1:20 diluted Compound dilution (from step 7) to each well plus the 1:20 dimethylsulfoxide dilution to the control wells (+/− VEGF), for a final dilution of 1:200 after cell stimulation. Final dimethylsulfoxide is 0.5%. Incubate the plate at 37° C., 5% CO2 for two hours.
10. Remove unbound antibody from ELISA plates by inverting plate to remove liquid. Wash 3 times with TBSW+0.5% ethanolamine, pH 7.0. Pat the plate on a paper towel to remove excess liquid and bubbles.
11. Block plates with TBSW+0.5% Ethanolamine, pH 7.0, 150 μL per well. Incubate plate thirty minutes while shaking on a microliter plate shaker.
12. Wash plate 3 times as described in step 10.
13. […] Bring final volume to 150 μL/well with TBSW+0.5% ethanolamine pH 7.0. Incubate plate for thirty minutes while shaking.
14. Add 180 μL starvation medium to the cells and stimulate cells with 20 μL/well 10.0 mM sodium ortho vanadate and 500 ng/mL VEGF (resulting in a final concentration of 1.0 mM sodium ortho vanadate and 50 ng/mL VEGF per well) for eight minutes at 37° C., 5% CO2. Negative control wells receive only starvation medium.
15. After eight minutes, media should be removed from the cells and washed one time with 200 μL/well PBS.
16. Lyse cells in 150 μL/well HNTG while shaking at room temperature for five minutes. HNTG formulation includes sodium ortho vanadate, sodium pyro phosphate and EDTA.
17. Wash ELISA plate three times as described in step 10.
18. Transfer cell lysates from the cell plate to ELISA plate and incubate while shaking for two hours. To transfer cell lysate pipette up and down while scrapping the wells.
19. Wash plate three times as described in step 10.
20. Incubate ELISA plate with 0.02 μg/well UB40 in TBSW+05% ethanolamine. Bring final volume to 150 μL/well. Incubate while shaking for 30 minutes.
21. Wash plate three times as described in step 10.
22. Incubate ELISA plate with 1:10,000 diluted EIA grade goat anti-mouse IgG conjugated horseradish peroxidase in TBSW+0.5% ethanolamine, pH 7.0. Bring final volume to 150 μL/well. Incubate while shaking for thirty minutes.
23. Wash plate as described in step 10.
24. Add 100 μL of ABTS/H2O2 solution to well. Incubate ten minutes while shaking.
25. Add 100 μL of 0.2 M HCl for 0.1 M HCl final to stop the color development reaction. Shake 1 minute at room temperature. Remove bubbles with slow stream of air and read the ELISA plate in an ELISA plate reader at 410 nm.
(§1) The IC50 values were measured for several of the compounds of the invention.

The subject of assay [1] is EGF-induced BrdU incorporation. In words: EGF-induced BrdU incorporation assay. In kind it is cell-based. As to conditions: read-out: EGF-Induced BrdU Incorp. IC50. Here is the method: (§2) PDGF-, FGF-, and EGF-Induced BRDU Incorporation Assay
(§3) 1. Cells were seeded at 8000 cells/well in DMEM, 10% CS, 2 mM Gln in a 96 well plate. Cells were incubated overnight at 37° C. in 5% CO2.
(§4) 2. After 24 hours, the cells were washed with PBS, and then were serum starved in serum free medium (0% CS DMEM with 0.1% BSA) for 24 hours.
(§5) 3. On day 3, ligand (PDGF=3.8 nM, prepared in DMEM with 0.1% BSA) and test compounds were added to the cells simultaneously. The negative control wells received serum free DMEM with 0.1% BSA only; the positive control cells received the ligand (PDGF) but no test compound. Test compounds were prepared in serum free DMEM with ligand in a 96 well plate, and serially diluted for 7 test concentrations.
(§6) 4. After 20 hours of ligand activation, diluted BrdU labeling reagent (1:100 in DMEM, 0.1% BSA) was added and the cells were incubated with BrdU (final concentration=10 μM) for 1.5 hours.
(§7) 5. After incubation with labeling reagent, the medium was removed by decanting and tapping the inverted plate on a paper towel. FixDenat solution was added (50 μL/well) and the plates were incubated at room temperature for 45 minutes on a plate shaker.
(§8) 6. The FixDenat solution was thoroughly removed by decanting and tapping the inverted plate on a paper towel. Milk was added (5% dehydrated milk in PBS, 200 μL/well) as a blocking solution and the plate was incubated for 30 minutes at room temperature on a plate shaker.
(§9) 7. The blocking solution was removed by decanting and the wells were washed once with PBS. Anti-BrdU-POD solution (1:100 dilution in PBS, 1% BSA) was added (100 μL/well), and the plate was incubated for 90 minutes at room temperature on a plate shaker.
(§10) 8. The antibody conjugate was thoroughly removed by decanting and rinsing the wells 5 times with PBS, and the space was dried by inverting and tapping on a paper towel.
(§11) 9. TMB substrate solution was added (100 μL/well) and incubated for 20 minutes at room temperature on a plate shaker until color development was sufficient for photometric detection.
(§12) 10. The absorbance of the samples were measured at 410 nm (in “dual wavelength” mode with a filter reading at 490 nm, as a reference wavelength) on a Dynatech ELISA plate reader.
(§13) The IC50 values were measured for several of the compounds of the invention. These values are depicted in Table 10.

Assay [2] has as its system 3T3 cell line genetically engineered to express human PDGF-R. Put plainly: PDGF-induced BrdU incorporation assay. In kind it is cell-based. As to conditions: NIH3T3; 3T3 cells expressing human PDGF-R, PDGF 3.8 nM; read-out: PDGF-Induced BrdU Incorp. IC50. On the procedure: (1) PDGF: human PDGF B/B; 1276-956, Boehringer Mannheim, Germany
(8) 3T3 cell line genetically engineered to express human PDGF-R.
as §3, §4, §5, §6, §7, §8, §9, §10, §11, §12, §13

The test system of assay [3] is FGF-induced BrdU incorporation. Put plainly: FGF-induced BrdU incorporation assay. The conditions noted are these: read-out: FGF-Induced BrdU Incorp. IC50. In kind it is cell-based. Here is the method: as §2, §3, §4, §5, §6, §7, §8, §9, §10, §11, §12, §13
The target of assay [4] is Myc-GyrB-FGFR fusion protein (Homo sapiens, UniProt P11362). In words: ELISA assay measuring the kinase activity of the FGF receptor (Myc-GyrB-FGFR from COS/FGFR cell lysate). The assay is classed as biochemical. As to conditions: 7 μM ATP.
Sequence of Myc-GyrB-FGFR fusion protein (P11362 398-822): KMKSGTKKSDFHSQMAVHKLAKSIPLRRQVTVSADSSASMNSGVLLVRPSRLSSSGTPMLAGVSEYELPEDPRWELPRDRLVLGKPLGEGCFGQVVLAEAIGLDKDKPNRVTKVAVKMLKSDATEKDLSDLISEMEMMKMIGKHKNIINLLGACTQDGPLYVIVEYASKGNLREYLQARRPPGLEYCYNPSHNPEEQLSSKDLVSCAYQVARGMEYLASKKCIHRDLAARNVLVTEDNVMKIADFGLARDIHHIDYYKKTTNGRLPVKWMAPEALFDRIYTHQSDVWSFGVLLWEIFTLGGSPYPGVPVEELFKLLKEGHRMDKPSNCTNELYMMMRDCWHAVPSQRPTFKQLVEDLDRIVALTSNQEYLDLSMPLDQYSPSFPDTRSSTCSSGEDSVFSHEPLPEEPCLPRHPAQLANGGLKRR
Method: The following protocol describes the reagents and procedures used to analyze protein-tyrosine kinase activity of the Myc-GyrB-FGFR fusion protein.
Coat Corning 96 well ELISA plates with 1.0 μg/well of Rabbit αGyrB antibody in PBS for a total well volume of 100 μL. Store overnight at 4° C.
Remove unbound Rabbit antibody by inverting plate to remove liquid. Pat plate on a paper towel to remove excess liquid and bubbles
Add 100 μL of Blocking Buffer (TBB) to each well. Incubate while shaking on a microliter plate shaker at room temperature for 30 min.
Wash 4× with TBST. Pat plate on a paper towel to remove excess liquid and bubbles.
Add 15 μg COS/FGFR cell lysate Myc-GyrB-FGFR sources per well in HNTG for a final volume of 100 μL per well. Incubate while shaking on a micro-liter plate shaker at room temperature for 2 hours.
Wash 4× with TBST as described in step 4.
Add 80 μL of 1× kinase buffer per well.
Dilute compunds/extracts 1:10 (or as stated otherwise) in 1× kinase buffer +1% DMSO in a polypropylene 96 well plate.
At this point diluted Compounds/Extracts are added to the ELISA plate. […]
The target in a further assay is T2, EGFR protein (Homo sapiens, UniProt P00533).
T2 construct: A431 cell lysate; endogenous in cells; host or cells: A431
T2 sequence (P00533 25-1210): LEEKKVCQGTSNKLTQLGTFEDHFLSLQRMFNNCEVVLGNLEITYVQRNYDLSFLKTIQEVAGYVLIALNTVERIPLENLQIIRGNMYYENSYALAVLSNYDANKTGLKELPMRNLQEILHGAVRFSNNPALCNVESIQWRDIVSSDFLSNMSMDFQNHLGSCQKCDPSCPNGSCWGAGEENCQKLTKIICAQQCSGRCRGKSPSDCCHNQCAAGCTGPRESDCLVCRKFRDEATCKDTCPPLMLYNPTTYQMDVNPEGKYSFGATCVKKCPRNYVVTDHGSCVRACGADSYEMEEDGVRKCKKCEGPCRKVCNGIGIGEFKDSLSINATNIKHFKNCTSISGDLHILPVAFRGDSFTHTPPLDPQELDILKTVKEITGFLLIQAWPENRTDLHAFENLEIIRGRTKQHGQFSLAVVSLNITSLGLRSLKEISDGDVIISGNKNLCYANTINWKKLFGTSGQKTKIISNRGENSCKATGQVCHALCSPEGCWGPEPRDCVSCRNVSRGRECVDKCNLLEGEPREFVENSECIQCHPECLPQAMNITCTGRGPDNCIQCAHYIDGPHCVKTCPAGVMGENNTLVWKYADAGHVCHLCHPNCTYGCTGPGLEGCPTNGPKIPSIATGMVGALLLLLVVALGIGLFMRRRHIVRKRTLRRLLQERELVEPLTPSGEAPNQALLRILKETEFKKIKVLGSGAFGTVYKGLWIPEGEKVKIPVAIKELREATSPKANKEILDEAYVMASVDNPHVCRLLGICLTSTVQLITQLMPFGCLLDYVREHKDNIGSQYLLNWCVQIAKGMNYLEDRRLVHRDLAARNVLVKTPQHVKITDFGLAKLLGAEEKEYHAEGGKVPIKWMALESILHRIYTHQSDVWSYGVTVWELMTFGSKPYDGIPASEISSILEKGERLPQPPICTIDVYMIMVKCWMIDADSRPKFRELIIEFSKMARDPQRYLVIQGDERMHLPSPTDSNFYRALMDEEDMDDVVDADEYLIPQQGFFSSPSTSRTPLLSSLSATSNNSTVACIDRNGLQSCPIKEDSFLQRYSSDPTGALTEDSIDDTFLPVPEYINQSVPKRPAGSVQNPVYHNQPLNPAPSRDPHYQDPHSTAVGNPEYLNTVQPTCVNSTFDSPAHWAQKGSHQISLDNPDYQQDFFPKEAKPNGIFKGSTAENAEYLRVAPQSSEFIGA
Put plainly: ELISA assay measuring the kinase activity of the EGF receptor (EGFR captured from A431 cell lysate). The assay is classed as biochemical. Here is the method: The following protocol describes the reagents and procedures used to analyze protein tyrosine kinase activity on the EGFR protein.
All of the following steps are conducted at room temperature unless it is specifically indicated. All ELISA plate washing is by rinsing 4× with TBST.
1. Coat Corning 96 well ELISA plates with 0.5 μg/well of SUMO1 in a volume of 100 μL PBS. Store overnight at 4° C.
2. Remove unbound SUMO1 by inverting plate to remove liquid. Wash plates with distilled water. Pat plate on a paper towel to remove excess liquid and bubbles
3. Add 150 μL of Blocking Buffer to each well. Incubate while shaking on a microliter plate shaker at room temperature for 30 min.
4. Wash 3× with deionized water, then once with TBST. Pat plate on a paper towel to remove excess liquid and bubbles.
5. Dilute lysate in PBS (7 μg of lysate/100 μL of PBS).
6. Add 100 μL of diluted lysate to each well. Shake at room temperature for 60 min.
7. Wash as described in step 4.
8. Add 120 μL TBS to ELISA plate containing captured EGFR.
9. Dilute drugs/extracts 1:10 (unless specified otherwise) in TBS in 96-well polypropylene plates.
10. Add 13.5 μL diluted drugs/extracts to ELISA plate.
11. Incubate for 30 minutes while shaking at room temperture.
12. […] Incubate while shaking on a micro-liter plate shaker at room temperature for 5 min.
13. Stop Kinase reaction with the addition of 16.5 μL of 200 mM EDTA pH 8.0 to all wells.
14. Wash 4× with deionized water and twice with TBST.
15. Add 100 μL per well of anti-phosphotyrosine (1:3000 dilution in TBST). Incubate while shaking on a micro-liter plate shaker 30-45 minutes at room temperature while shaking.
16. Wash as described in step 4.
17. Add 100 μL per well of biosource Goat anti-rabbit IgG peroxidase conjugate (1:2000 dilution in TBST). Incubate 30 min. at room temerature while shaking.
18. Wash as described in step 4.
19. Add 100 μL of ABTS/H2O2 solution to each well.
20. Incubate 5 to 15 minutes while shaking. Remove any bubbles.
21. If necessary stop reaction with the addition of 10 μL of 0.2 M HCl/well.
22. Read assay on Dynatech MR7000 ELISA Plate Reader.
as §1

T1 sequence (P35918 20-1345): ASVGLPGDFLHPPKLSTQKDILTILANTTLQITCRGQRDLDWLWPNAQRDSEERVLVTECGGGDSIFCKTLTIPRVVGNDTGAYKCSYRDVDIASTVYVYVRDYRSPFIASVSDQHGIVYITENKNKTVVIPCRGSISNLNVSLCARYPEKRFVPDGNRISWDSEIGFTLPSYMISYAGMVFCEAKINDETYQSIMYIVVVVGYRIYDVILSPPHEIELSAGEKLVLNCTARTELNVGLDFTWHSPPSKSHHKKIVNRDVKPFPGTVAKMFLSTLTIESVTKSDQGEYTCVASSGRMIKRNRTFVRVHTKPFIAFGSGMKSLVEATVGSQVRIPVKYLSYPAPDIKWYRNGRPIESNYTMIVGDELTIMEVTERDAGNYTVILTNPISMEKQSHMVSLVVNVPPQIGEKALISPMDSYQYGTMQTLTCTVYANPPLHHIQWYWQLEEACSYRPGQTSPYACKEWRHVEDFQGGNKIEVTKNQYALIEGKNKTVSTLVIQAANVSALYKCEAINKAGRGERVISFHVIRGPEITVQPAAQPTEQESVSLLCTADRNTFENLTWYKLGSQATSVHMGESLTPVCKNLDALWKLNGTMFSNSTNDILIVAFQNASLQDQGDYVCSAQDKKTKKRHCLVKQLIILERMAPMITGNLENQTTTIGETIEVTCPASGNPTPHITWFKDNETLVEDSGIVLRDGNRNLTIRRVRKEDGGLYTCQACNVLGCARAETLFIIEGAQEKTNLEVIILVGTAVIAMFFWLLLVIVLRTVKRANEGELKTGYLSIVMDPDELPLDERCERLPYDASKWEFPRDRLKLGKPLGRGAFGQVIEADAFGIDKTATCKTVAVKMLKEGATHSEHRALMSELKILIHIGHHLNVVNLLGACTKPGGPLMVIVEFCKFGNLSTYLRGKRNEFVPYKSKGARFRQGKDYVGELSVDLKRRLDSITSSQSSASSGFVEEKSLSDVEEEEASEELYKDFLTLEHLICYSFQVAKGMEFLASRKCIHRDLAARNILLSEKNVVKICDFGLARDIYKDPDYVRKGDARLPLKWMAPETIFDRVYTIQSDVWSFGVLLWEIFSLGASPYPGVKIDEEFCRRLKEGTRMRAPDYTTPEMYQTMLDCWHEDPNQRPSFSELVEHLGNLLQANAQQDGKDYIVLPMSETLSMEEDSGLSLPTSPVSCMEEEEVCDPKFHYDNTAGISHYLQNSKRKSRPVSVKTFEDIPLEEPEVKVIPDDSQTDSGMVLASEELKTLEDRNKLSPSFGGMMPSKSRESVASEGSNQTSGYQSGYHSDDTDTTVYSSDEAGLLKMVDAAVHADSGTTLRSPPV

As for `COc1ccccc1-c1ccc2c(c1)NC(=O)C2=Cc1[nH]c2c(c1CCC(=O)O)CCCC2` [IN-018, 3-{2-[6-(2-Methoxy-phenyl)-2-oxo-1,2-dihydro-indol-3-ylidenemethyl]-4,5,6,7-tetrahydro-1H-indol-3-yl}-propionic acid], the pIC50 against FLK-1 receptor was 5.57.
For `Cc1ccc2c(c1)C(=Cc1[nH]cc(C)c1CCC(=O)O)C(=O)N2` [IN-032, 3-[2-(5-Methyl-2-oxo-1,2-dihydro-indol-3-ylidenemethyl)-4-methyl-1H-pyrrol-3-yl]-propionic acid], the negative-log IC50 (pIC50) in assay [1] was < 4.30; in assay [2], 4.96; in assay [3], 4.52.
Consider `CC(C)NS(=O)(=O)c1ccc2c(c1)C(=Cc1[nH]c3c(c1CCC(=O)O)CCCC3)C(=O)N2` [IN-019, 3-[2-(5-Isopropylaminosulfonyl-2-oxo-1,2-dihydro-indol-3-ylidenemethyl)-4,5,6 7-tetrahydro-1H-indol-3-yl]-propionic acid], for which, on FLK-1 receptor, the negative logarithm of the IC50 (pIC50) is > 6.11.
For the compound `O=C(O)CCc1c(C=C2C(=O)Nc3cc(Cl)ccc32)[nH]c2c1CCCC2` [IN-006, 3-[2-(6-Chloro-2-oxo-1,2-dihydro-indol-3-ylidenemethyl)-4,5,6,7-tetrahydro-1H-indol-3-yl]-propionic acid], the negative logarithm of the IC50 (pIC50) in assay [1] was 4.20; in assay [2], 5.43; on FLK-1 receptor, 7.51; in assay [3], 4.52.
In turn, `O=C(O)CCc1ccccc1/C=C1/C(=O)Nc2ccccc21` [IN-025, 3-[2-(2-Oxo-1,2-dihydro-indol-3-ylidenemethyl)-phenyl]-propionic acid] showed a negative-log IC50 (pIC50) in assay [4] of 4.52.
On to `O=C(O)CCc1c(C=C2C(=O)Nc3cc(-c4ccccc4)ccc32)[nH]c2c1CCCC2` [IN-017, 3-[2-(2-Oxo-6-phenyl-1,2-dihydro-indol-3-ylidenemethyl)-4,5,6,7-tetrahydro-1H-indol-3-yl]-propionic acid], for which the pIC50 at FLK-1 receptor was > 6.11.
Still for that read-out and setting: then `O=C(O)CCc1c(/C=C2\C(=O)Nc3ncccc32)[nH]c2c1CCCC2` [IN-014, 3-[2-(2-Oxo-1,2-dihydro-pyrrolo[2,3-b]pyridin-3-ylidenemethyl)-4,5,6,7-tetrahydro-1H-indol-3-yl]-propionic acid], with 6.85.
Consider `COc1cccc(-c2ccc3c(c2)NC(=O)C3=Cc2[nH]c3c(c2CCC(=O)O)CCCC3)c1` [IN-015, 3-{2-[6-(3-Methoxy-phenyl)-2-oxo-1,2-dihydro-indol-3-ylidenemethyl]-4,5,6,7-tetrahydro-1H-indol-3-yl}-propionic acid], for which the pIC50 against FLK-1 receptor is > 6.11.
For the compound `COc1ccc2c(c1)C(=Cc1[nH]cc(C)c1CCC(=O)O)C(=O)N2` [IN-033, 3-[2-(5-Methoxy-2-oxo-1,2-dihydro-indol-3-ylidenemethyl)-4-methyl-1H-pyrrol-3-yl]-propionic acid], the negative-log IC50 (pIC50) in assay [1] is < 4.30; in assay [2], < 4.30; on EGFR protein, < 4.00; in assay [3], 4.46.
